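A five-concentration, 48-hour dose response in 96-well plates underlies each endpoint, interpolated linearly between surrounding concentrations. At the GI50, growth is halved.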 The source made the active and inactive calls. No stated cut-off is given here; in the data, active = GI50 up to about 1.1 µM and inactive = higher.

Common to all, as to assay: NCI tumour cell line growth inhibition, 48 h
Test [1] deals with UACC-257.
The subject of test [2] is HL-60.
Test [3] relates to COLO 205.
Test [4] has as its system RPMI-8226.
Test [5] deals with SK-MEL-2.
The subject of test [6] is HCT-116.
The subject of test [7] is U-251.
Test [8] has as its system SK-MEL-28.
Test [9] concerns MCF7.
For test [10], the system named is SF-295.
The test system of test [11] is OVCAR-8.
For test [12], the system named is MDA-MB-435.
Test [13] relates to NCI/ADR-RES.
The subject of test [14] is HCC 2998.
The subject of test [15] is DU-145.
In test [16] the test system is OVCAR-4.
The test system of test [17] is SNB-75.
Test [18] deals with MOLT-4.
In test [19] the test system is NCI-H522.
In test [20] the test system is OVCAR-5.

As to `CCCCCCCCCCCCCCCCSS(C)(=O)=O`, the GI50 is 42.2 µM (inactive) in test [1]; 4.07 µM (inactive) in test [2]; 19.2 µM (inactive) in test [3]; 5 µM (inactive) in test [4]; 5.81 µM (inactive) in [5]; 10.6 µM (inactive) in test [6]. The GI50 in test [7] was 55 µM (inactive); in [8], 11.9 µM (inactive); in test [9], 27.6 µM (inactive); in test [10] it was > 100 µM (inactive); in test [11], 29.4 µM (inactive); in test [12], > 100 µM (inactive). Further, the GI50 is 2.33 µM (inactive) in test [13]; > 53.6 µM (inactive) in test [14]; > 100 µM (inactive) in test [15]; 18.7 µM (inactive) in [16]; 14.6 µM (inactive) in [17]; 1.39 µM (inactive) in test [18]. Besides, the GI50 in [19] was 4.48 µM (inactive); in test [20] it was > 91 µM (inactive).

Consider `COc1ccc2c(c1)NC1(CCN(CCCC(=O)c3ccc(F)cc3)CC1)N=N2`, for which the GI50 is 17.6 µM (inactive) in test [1]; 15.2 µM (inactive) in [2]; 14.5 µM (inactive) in [3]; 16.6 µM (inactive) in [4]; 17.9 µM (inactive) in test [5]; 17.1 µM (inactive) in [6]. Besides, the GI50 in [7] was 19.2 µM (inactive); in [8] it was 20 µM (inactive); in [9], 17.4 µM (inactive); in test [10], 19.6 µM (inactive); in [12] it was 15.8 µM (inactive); in test [13], 24.4 µM (inactive). The GI50 in [14] was 14.8 µM (inactive); in [15], 18.5 µM (inactive); in test [16], 27.4 µM (inactive); in test [17], 15.1 µM (inactive); in test [18], 15.3 µM (inactive); in test [19], 16.9 µM (inactive). The GI50 in test [20] was 23.5 µM (inactive).

For the compound `CN(/N=C/c1cccs1)c1ccc(Cl)cc1[N+](=O)[O-]`, the GI50 in test [1] was 35.6 µM (inactive); in [2], 6.75 µM (inactive); in test [3], > 10 µM (inactive); in test [4], 22 µM (inactive); in [6] it was 26.2 µM (inactive); in test [7] it was 13.7 µM (inactive). The GI50 is 78.5 µM (inactive) in [8]; 18 µM (inactive) in [9]; 37.7 µM (inactive) in test [10]; 40.5 µM (inactive) in [11]; 5.57 µM (inactive) in test [12]; 18.9 µM (inactive) in test [13]. Further, the GI50 in [14] was 25.8 µM (inactive); in test [15], 64.4 µM (inactive); in test [16], 59.3 µM (inactive); in test [17], 30.8 µM (inactive); in test [18] it was 17.1 µM (inactive); in test [19], 22.6 µM (inactive).

As for `CCCCc1ccc(Nc2nc3c(ncn3C3OC(COC(C)=O)C(OC(C)=O)C3OC(C)=O)c(=O)[nH]2)cc1` (centres undefined), the GI50 in test [1] was 18.9 µM (inactive); in test [2] it was 26.2 µM (inactive); in test [3] it was 17.6 µM (inactive); in test [4] it was 20.4 µM (inactive); in [5], 15.7 µM (inactive); in test [6], 17.1 µM (inactive). In addition, the GI50 in [7] is 21 µM (inactive); in test [9] it was 23 µM (inactive); in [10] it was 21.2 µM (inactive); in test [11], 18.4 µM (inactive); in [12], 19.9 µM (inactive); in [13], > 100 µM (inactive). For the same compound, the GI50 was 20.7 µM (inactive) in test [14]; 31.3 µM (inactive) in [15]; 21.9 µM (inactive) in test [16]; 18.7 µM (inactive) in test [18]; 18 µM (inactive) in test [19]; 79.6 µM (inactive) in test [20].

For `COc1cccc(OC)c1C1ON=C(c2ccccc2)N1C12CC3CC(CC(C3)C1)C2` (centres undefined), the GI50 in [1] is > 100 µM (inactive); in test [2] it was 1.87 µM (inactive); in test [3] it was > 100 µM (inactive); in test [4], 4.41 µM (inactive); in test [5] it was 64 µM (inactive); in test [6] it was 51.2 µM (inactive). The GI50 in test [7] is 30.1 µM (inactive); in [8], > 100 µM (inactive); in [9], > 100 µM (inactive); in [10], > 100 µM (inactive); in test [11] it was > 100 µM (inactive); in test [12] it was > 100 µM (inactive). The GI50 in test [13] is > 100 µM (inactive); in [14] it was > 100 µM (inactive); in [15], > 100 µM (inactive); in [17], 20.7 µM (inactive); in [18], 84.5 µM (inactive); in test [19], 31 µM (inactive). For the same compound, in test [20], the GI50 was 46.2 µM (inactive).

In the case of `CCCC1C(C#N)(C#N)C(C#N)=C(N)C1(C)C(C)=O` (centres undefined), the GI50 in test [1] was 86.9 µM (inactive); in [2], 31.8 µM (inactive); in [3], 65 µM (inactive); in test [4], > 100 µM (inactive); in test [5] it was > 100 µM (inactive); in test [6], 73.1 µM (inactive). The GI50 in [7], in test [9], in [10], in [11], in [12] and in test [13] was > 100 µM (inactive) in each case. Moreover, the GI50 in test [14] was > 100 µM (inactive); in [15] it was > 100 µM (inactive); in test [17], 4.42 µM (inactive); in test [18], > 100 µM (inactive); in test [19], 52.8 µM (inactive); in test [20] it was > 100 µM (inactive).

As to `COc1cc(Oc2c(C)c(Cl)c(OC)c(Cl)c2OC)c2c(c1Cl)COC2=O`, the GI50 was 31.9 µM (inactive) in test [1]; 7.78 µM (inactive) in test [2]; 20.9 µM (inactive) in test [3]; 3.52 µM (inactive) in test [4]; 6.34 µM (inactive) in test [6]; 29.8 µM (inactive) in test [7]. For the same compound, the GI50 is 62.2 µM (inactive) in [8]; 14.4 µM (inactive) in [9]; 15.6 µM (inactive) in test [10]; 17.6 µM (inactive) in test [11]; 31.3 µM (inactive) in test [12]; 17.1 µM (inactive) in test [13]. The GI50 in [14] was 26.6 µM (inactive); in [15], 52.6 µM (inactive); in [16] it was 10.8 µM (inactive); in test [17], 41.9 µM (inactive); in test [18], 10 µM (inactive); in test [19] it was 11.5 µM (inactive). In addition, the GI50 in test [20] is 47.1 µM (inactive).

`CC(C)(C)OC(=O)NCC(C#N)CNC(=O)OC(C)(C)C`: the GI50 in test [1], in test [2], in test [3], in test [4], in [6] and in [7] was > 100 µM (inactive) in each case. Further, the GI50 in test [8], in test [9], in test [10], in test [11], in test [12] and in [13] was > 100 µM (inactive) each time. The GI50 in [14], in [15], in [16], in test [18], in [19] and in test [20] was > 100 µM (inactive) throughout.

As for `CC[C@]1(O)C[C@H]2CN(CCc3c([nH]c4ccccc34)[C@@](C(=O)OC)(c3cc4c(cc3OC)N(C)[C@H]3[C@@](O)(C(=O)OC)[C@H](OC(C)=O)[C@]5(CC)C=CCN6CC[C@]43[C@@H]65)C2)C1`, the GI50 is 0.00042 µM (active) in test [2]; 0.000435 µM (active) in test [3]; 0.000679 µM (active) in test [4]; 0.000762 µM (active) in [5]; 0.000481 µM (active) in test [6]; 0.000715 µM (active) in test [7]. Also, the GI50 is 0.00165 µM (active) in [8]; 0.00045 µM (active) in test [9]; 0.000492 µM (active) in test [10]; 0.00129 µM (active) in [11]; 0.000386 µM (active) in [12]; 0.115 µM (active) in test [13]. For the same compound, the GI50 in test [14] is 0.000959 µM (active); in test [15], 0.000395 µM (active); in [16] it was 0.136 µM (active); in test [18], 0.000736 µM (active); in [19], 0.000309 µM (active).

As to `CCCCn1c(O)nc2c(N)ncnc21`, the GI50 in test [1], in [2], in test [3], in [5], in [6] and in [7] was > 100 µM (inactive) in each case. Further, the GI50 in [8], in [9], in [10], in test [11], in [12] and in [13] was > 100 µM (inactive) in each case. The GI50 in test [14], in test [15], in test [16], in [17], in test [19] and in test [20] was > 100 µM (inactive) each time.

The record behind these values is ChEMBL document CHEMBL1201862, “PubChem BioAssay data set” (2004).
